From publication PMC10771296, “Plectasin: from evolution to truncation, expression, and better druggability” (Frontiers in Microbiology, 2023)
Values after ≈ are worked out from the molar mass of the structure shown. “Also recorded” adds a separate entry of the source. Where a SMILES comes first, the peptide text is derived from it. Bridges are numbered along the chain shown (N, C = ends).

Experiments:
S. aureus ATCC43300 [1] = assay: Salt (metal ion) stability read out as MIC; assay type: cell-based, Staphylococcus aureus; details: triplicates
Protocol: (§1) The stability of Ple-AB was assessed based on its antibacterial activity against S. aureus ATCC43300. Temperature stability was determined by incubation at 20, 40, 60, 80, and 100°C for 1 h ([Li et al., 2020]). The pH stability was determined by incubation in buffers with a pH of 2, 4, 6, 8, and 10 for 4 h ([Yang et al., 2017]). The peptides were incubated with different concentrations of metal ions, serum, artificial gastric fluid, and simulated intestinal fluid to assess their stability in the blood and intestines ([Lyu et al., 2019]). All the treatments were performed in triplicates.

[2] = test system: murine macrophage RAW 264.7; assay: Cytotoxicity, MTT assay; assay type: cell-based, mouse
Protocol: The cytotoxicity of Ple-AB toward the murine macrophage RAW 264.7 (Peking Union Medical College) was tested using the MTT assay ([Wang et al., 2018]). Cells (2.5 × 10^4 CFU/mL) were incubated at 37°C for 24 h, and thereafter Ple-AB at a concentration of 2–256 μg/mL was added for 24 h. The supernatant was washed twice, […] 3-(4,5-dimethylthiazol-2-yl)-2,5-diphenyltetrazolium bromide (MTT) solution was added, and the mixture was incubated for 4 h. The absorbance of each well was measured at 570 nm using a microplate reader. PBS (Acontrol) was used as the control. Survival rate (%) = (A/Acontrol) × 100 was calculated.

ICR mice [3] = assay: In vivo safety: body weight and HE histology; details: 10 mg/kg i.p. for six consecutive days
Protocol: (§2) Eight 6-week-old ICR mice were randomly divided into two groups and injected intraperitoneally with Ple-AB (10 mg/kg, body weight) and saline for six consecutive days. […] They were weighed daily, and blood was collected on the 7th day for hematological and biochemical analyses. Simultaneously, the heart, liver, spleen, lungs, and kidneys were collected for tissue fixation and hematoxylin–eosin (HE) staining to observe any pathological changes ([Shishkina et al., 2023]).

S. aureus ATCC 43300 = assay: Inhibition zone screening of expression supernatants; assay type: cell-based, Staphylococcus aureus; details: induced supernatant of P. pastoris X-33 transformants, 48-well plates, 120 h
Excerpt: The recombinant expression vector was constructed by ligating the designed and optimized sequence to the pPICZαA inducible expression vector, relying on the preference of the codon of P. pastoris. The linearized plasmid was transferred into P. pastoris X-33 for expression and the resulting product was verified for activity using an inhibition zone assay (against S. aureus ATCC 43300) before the active peptide was expressed at a high density in a 5-L fermenter ([Mao et al., 2015]). The supernatant was purified using the AKTA Express system. The fermentation supernatant was collected by centrifugation (5,000 rmp, 30 min), filtered with micro-filtration membranes ([…]). According to the isoelectric point of the target product, the corresponding A (50 mM sodium phosphate buffer, pH 6.7) and B (50 mM sodium phosphate buffer, 600 mM NaCl, pH 6.7) buffers were configured and purified by HiPrep SP FF cation exchange column (GE Healthcare). The protein samples were eluted by increasing the NaCl concentration in a stepwise manner, and the corresponding elution peak was collected. The purified product was verified using tricine-sodium dodecyl sulfate-polyacrylamide gel electrophoresis (Tricine-SDS-PAGE) and matrix-assisted laser desorption/ionization–time-of-flight mass spectrometry (MALDITOF MS) ([Zhang et al., 2014]).
A total of 15 recombinant plasmids were constructed. […]

S. aureus ATCC43300 [4] = assay: Serum stability read out as MIC; assay type: in vitro ADME, Staphylococcus aureus; details: 1–8 h, triplicates
Protocol: as §1

S. aureus E48 = assay: MIC/MBC, micro broth dilution; assay type: cell-based, Staphylococcus aureus
Protocol: (§3) The minimum inhibitory concentration (MIC) of the peptides was assayed using the micro broth dilution method, which is an important indicator of the antibacterial activity of the AMPs ([Liu et al., 2021]). […] The MIC was defined as the lowest concentration of ones at which no visible bacterial growth was observed. All the assays were repeated thrice.

S. aureus ATCC25923 = assay: MIC/MBC, micro broth dilution; assay type: cell-based, Staphylococcus aureus
Protocol: as §3

S. aureus CVCC546 = assay: MIC/MBC, micro broth dilution; assay type: cell-based, Staphylococcus aureus
Protocol: as §3

S. aureus ATCC43300 [5] = assay: MIC/MBC, micro broth dilution; assay type: cell-based, Staphylococcus aureus
Protocol: as §3

Streptococcus = assay: MIC, summary over the panel; assay type: cell-based; details: including S. agalactiae ATCC13813, S. dysgalactiae CVCC3938, S. agalactiae CAU-FRI-2022-02
Protocol: as §3

gram-negative bacteria = assay: MIC, summary over the panel; assay type: cell-based; details: summary of the panel
Protocol: as §3

ICR mice [6] = assay: In vivo safety: serum biochemical indices; details: 10 mg/kg i.p. for six consecutive days
Protocol: as §2

[7] = micro broth dilution, 1 × 10^5 CFU/mL, repeated thrice

SMILES: CC[C@H](C)[C@@H]1NC(=O)[C@H](CO)NC(=O)[C@H](CCCCN)NC(=O)[C@@H]2CSSC[C@@H](C(=O)N[C@@H](Cc3ccc(O)cc3)C(=O)O)NC(=O)[C@H](CCCCN)NC(=O)[C@@H]3CSSC[C@H](NC(=O)[C@H](CCC(N)=O)NC(=O)[C@H](CCSC)NC(=O)[C@H](CCC(=O)O)NC(=O)[C@H](CC(=O)O)NC(=O)[C@H](Cc4c[nH]c5ccccc45)NC(=O)[C@@H]4CCCN4C(=O)[C@@H](NC(=O)CNC(=O)[C@H](Cc4ccccc4)NC(=O)CN)CSSC[C@H](NC(=O)[C@H](Cc4ccc(O)cc4)NC(=O)CNC(=O)CNC(=O)[C@H](CCCCN)NC(=O)[C@H](Cc4ccc(O)cc4)NC(=O)CNC(=O)[C@H](CCCCN)NC1=O)C(=O)N[C@@H](C)C(=O)N[C@@H](CCCCN)C(=O)NCC(=O)NCC(=O)N[C@@H](Cc1ccccc1)C(=O)N[C@@H](C(C)C)C(=O)N3)C(=O)N[C@@H](Cc1c[nH]cn1)C(=O)N[C@@H](CC(N)=O)C(=O)N[C@@H](Cc1c[nH]cn1)C(=O)N2 [Ple-AB] (H-GFGCPWDEMQCHNHCKSIKGYKGGYCAKGGFVCKCY-OH; disulfide 4-26, 11-33, 15-35; N-terminus and C-terminus assumed)
- MIC with salts (S. aureus ATCC43300 [1]; Ca^2+ (2.5 mM)): 16 µg/mL
- MIC with salts (S. aureus ATCC43300 [1]; Fe^3+ (4 μM)): 16 µg/mL
- MIC with salts (S. aureus ATCC43300 [1]; K^+ (4.5 mM)): 16 µg/mL
- MIC with salts (S. aureus ATCC43300 [1]; Mg^2+ (1 mM)): 16 µg/mL
- MIC with salts (S. aureus ATCC43300 [1]; NH4^+ (6 μM)): 16 µg/mL
- MIC with salts (S. aureus ATCC43300 [1]; Na^+ (150 mM)): 16 µg/mL
- MIC with salts (S. aureus ATCC43300 [1]; Zn^2+ (8 μM)): 16 µg/mL
- Cytotoxicity ([2]; RAW264.7, 256 μg/mL): < 1%
- Cell survival rate ([2]; RAW264.7, 2–256 μg/mL, 24 h, MTT, A570): above 80%
- Histological morphology of heart, liver, spleen, lungs, kidneys (HE staining) (ICR mice [3]; one week after injection, vs saline): no differences in histological morphology
- Body weight change (ICR mice [3]; weighed daily): slight tendency to lose weight on the second day after the injection
- Antibacterial activity in inhibition circle screening (S. aureus ATCC 43300): better antibacterial activity; also recorded: normal or higher activity
- MIC after serum (S. aureus ATCC43300 [4]; Serum (25%)): 16 µg/mL (≈ 4 µM)
- MIC after serum (S. aureus ATCC43300 [4]; Serum (50%)): 16 µg/mL (≈ 4 µM)
- MBC (S. aureus E48; S. aureus E48): 16 µg/mL (≈ 4 µM)
- MIC (S. aureus E48; bovine clinical strain, micro broth dilution, 1 × 10^5 CFU/mL, repeated thrice): 4 µg/mL (≈ 1 µM)
- MBC (S. aureus ATCC25923; S. aureus ATCC25923): 64 µg/mL (≈ 16 µM)
- MIC (S. aureus ATCC25923; [7]): 16 µg/mL (≈ 4 µM)
- MBC (S. aureus CVCC546; S. aureus CVCC546): 16 µg/mL (≈ 4 µM)
- MIC (S. aureus CVCC546; [7]): 8 µg/mL (≈ 2 µM)
- MBC (S. aureus ATCC43300 [5]; S. aureus ATCC43300): 32 µg/mL (≈ 8 µM)
- MIC (S. aureus ATCC43300 [5]; [7]): 16 µg/mL (≈ 4 µM)
- MIC (S. aureus ATCC43300 [5]; untreated control of the stability test, triplicates): 16 µg/mL (≈ 4 µM)
- MICs, range over Streptococcus (Streptococcus): 2 to 4 µg/mL
- Activity against gram-negative bacteria (gram-negative bacteria): inactive
- Serum biochemical indices versus control group (ICR mice [6]; blood on 7th day): not significantly different
- ALT (ICR mice [6]; serum on 7th day): 49.07 ± 6.21 IU/L
- AST (ICR mice [6]; serum on 7th day): 25.85 ± 2.33 IU/L
- Albumin (ICR mice [6]; serum on 7th day): 35.59 ± 4.58 g/L
- Ca^2+ (ICR mice [6]; serum on 7th day): 1.38 ± 0.06 mmol/L
- Creatinine (ICR mice [6]; serum on 7th day): 83.13 ± 4.57 µmol/L
- Globulin (ICR mice [6]; serum on 7th day): 18.82 ± 0.25 g/L
- Glucose (ICR mice [6]; serum on 7th day): 1.59 ± 0.15 mmol/L
- Phosphorous (ICR mice [6]; serum on 7th day): 3.33 ± 0.20 mmol/L
- Total protein (ICR mice [6]; serum on 7th day): 54.41 ± 4.56 g/L
- Urea Nitrogen (ICR mice [6]; serum on 7th day): 11.6 ± 0.8 mmol/L
